The values below come from patent US20160015770A1, “COMPOSITIONS FOR TREATMENT OF RETINAL DETACHMENT” (THE REGENTS OF THE UNIVERSITY OF MICHIGAN, priority 2013, published 2016).

Test [1] relates to detached retina. As to conditions: 7 days, compared to untreated detached retinas, prior work (ref 12); cited from earlier work.
In test [2] the test system is detached retina. Put plainly: Experimental retinal detachment, western blot of autophagy markers (Atg5, Atg5-12, LC3-II) in retina. Format: in vivo. The following applies: rat, 50 μg subretinal at time of detachment, 7 days, vs detachments alone. As to the method:
All experiments were performed in accordance with the ARVO Statement for the Use of Animals in Ophthalmic and Vision Research and the guidelines established by the University Committee on Use and Care of Animals of the University of Michigan. Detachments were created in adult male Brown-Norway rats (300-400 g; Charles River Laboratories, Wilmington, Mass.) as described previously. Briefly, rodents were anesthetized with a 50:50 mix of ketamine/xylazine, and pupils were dilated with topical phenylephrine (2.5%) and tropicamide (1%). A 20-gauge microvitreoretinal blade was used to create a sclerotomy 2 mm posterior to the limbus, carefully avoiding lens damage. A subretinal injector (Glaser, 32-gauge tip; BD Ophthalmic Systems, Franklin Lakes, N.J.) was introduced through the sclerotomy into the vitreous cavity and then through a peripheral retinotomy into the subretinal space. Sodium hyaluronate (10 mg/mL, Healon OVD; Abbott Medical Optics, Uppsala, Sweden) was slowly injected to detach the neurosensory retina from the underlying RPE. In all experiments, approximately one third to one half of the neurosensory retina was detached. Detachments were created in the left eye. The right eye served as the control, with all the steps of the procedure performed except for introduction of the subretinal injector and injection of the sodium hyaluronate. […]
Retinas from experimental eyes with detachment (detached portion of retina only) and control eyes without detachment were dissected from the RPE-choroid, homogenized, and lysed in buffer containing 10 mM HEPES (pH 7.6), 0.5% IgEPal, 42 mM KCl, 1 mM phenylmethylsulfonyl fluoride, 1 mM EDTA, 1 mM EGTA, 1 mM dithiothreitol, 5 mM MgCl2, and one tablet of protease inhibitors per 10 mL buffer (Complete Mini; Roche Diagnostics GmbH, Madison, Wis.). […] The protein concentration of the supernatant was then determined (DC Protein Assay kit; Bio-Rad Laboratories, Hercules, Calif.). The protein samples were separated on SDS-polyacrylamide gels (Tris-HCl Ready Gels; Bio-Rad Laboratories). […]

The target in a further test is T1, calpain 1 (Mus musculus, UniProt O35350).
T1 construct: endogenous in cells; host or cells: 661W mouse photoreceptor cell line
T1 sequence (O35350 1-713): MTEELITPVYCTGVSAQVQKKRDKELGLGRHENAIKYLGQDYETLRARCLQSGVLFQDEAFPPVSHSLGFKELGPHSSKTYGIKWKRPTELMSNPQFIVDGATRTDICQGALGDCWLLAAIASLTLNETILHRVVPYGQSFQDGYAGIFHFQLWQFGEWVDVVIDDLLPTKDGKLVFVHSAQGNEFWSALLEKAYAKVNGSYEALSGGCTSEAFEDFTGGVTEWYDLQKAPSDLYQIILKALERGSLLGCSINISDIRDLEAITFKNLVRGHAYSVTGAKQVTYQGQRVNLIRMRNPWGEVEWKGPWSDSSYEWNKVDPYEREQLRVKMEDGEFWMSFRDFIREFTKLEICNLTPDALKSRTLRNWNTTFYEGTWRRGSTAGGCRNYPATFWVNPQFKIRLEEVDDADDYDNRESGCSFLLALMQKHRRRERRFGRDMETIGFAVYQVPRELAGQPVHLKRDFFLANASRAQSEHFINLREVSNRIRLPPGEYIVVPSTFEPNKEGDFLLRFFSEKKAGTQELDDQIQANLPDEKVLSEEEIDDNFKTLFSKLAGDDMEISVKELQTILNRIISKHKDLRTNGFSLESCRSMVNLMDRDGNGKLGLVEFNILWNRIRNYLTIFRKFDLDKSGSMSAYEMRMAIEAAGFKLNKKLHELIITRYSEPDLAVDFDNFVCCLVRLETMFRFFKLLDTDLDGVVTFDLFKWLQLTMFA
T1 sequence (O88456 1-268 partner): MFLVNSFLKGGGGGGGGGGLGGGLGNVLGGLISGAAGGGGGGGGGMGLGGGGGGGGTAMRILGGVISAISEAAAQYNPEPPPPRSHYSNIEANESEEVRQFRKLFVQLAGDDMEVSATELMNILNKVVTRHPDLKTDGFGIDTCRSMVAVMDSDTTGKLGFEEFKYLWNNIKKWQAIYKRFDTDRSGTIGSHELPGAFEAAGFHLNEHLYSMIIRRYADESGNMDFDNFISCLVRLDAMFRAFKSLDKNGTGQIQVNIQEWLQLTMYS
Put plainly: Western blot of calpain 1 specific cleaved alpha-spectrin in 661W cells treated with Fas activating antibody. Format: cell-based. As to conditions: 24 hours, inhibitor added 1 hour before Fas activating antibody, compared to Fas activation alone. As to the method: The 661W photoreceptor cell line was generously provided by Dr. Muayyad Al-Ubaidi (Department of Cell Biology, University of Oklahoma Health Sciences Center, Oklahoma City, Okla.). The 661W cell line was maintained in Dulbecco's modified Eagle's medium containing 10% fetal bovine serum, 300 mg/L glutamine, 32 mg/L putrescine, 40 μL/L β-mercaptoethanol, and 40 μg/L of both hydrocortisone 21-hemisuccinate and progesterone. The media also contained penicillin (90 units/mL) and streptomycin (0.09 mg/mL). Cells were grown at 37° C. in a humidified atmosphere of 5% CO2 and 95% air.
Retinas from experimental eyes with detachment (detached portion of retina only) and control eyes without detachment were dissected from the RPE-choroid, homogenized, and lysed in buffer containing 10 mM HEPES (pH 7.6), 0.5% IgEPal, 42 mM KCl, 1 mM phenylmethylsulfonyl fluoride, 1 mM EDTA, 1 mM EGTA, 1 mM dithiothreitol, 5 mM MgCl2, and one tablet of protease inhibitors per 10 mL buffer (Complete Mini; Roche Diagnostics GmbH, Madison, Wis.). 661W cells were plated at 150,000 cells per well in six-well culture dishes in growth media. After 24 hours, the cells were washed one time with warmed PBS solution and then placed in growth media without fetal bovine serum. Depending on experimental conditions, 500 ng/mL Fas activating antibody (BD Biosciences, San Jose, Calif.) and various calpain inhibitors including MDG-28170 (Sigma, St. Louis, Mo.), MG-101 (Sigma, St. Louis, Mo.), calpeptin (Santa Cruz Biotechnology, Santa Cruz, Calif.) or equal volume of DMSO was added. Calpain inhibitors were added 1 hour prior to the addition of Fas activating antibody. The cells were incubated for various lengths of time and then lysed and homogenized in lysis buffer. The homogenates were incubated on ice and centrifuged at 22,000 g at 4° C. for 60 minutes. The protein concentration of the supernatant was then determined (DC Protein Assay kit; Bio-Rad Laboratories, Hercules, Calif.). The protein samples were separated on SDS-polyacrylamide gels (Tris-HCl Ready Gels; Bio-Rad Laboratories). After electrophoretic separation, the proteins were transferred onto polyvinylidene fluoride membranes (Immobilon-P; Millipore, Billerica, Mass.). Membranes were then immunoblotted with antibodies according to the manufacturer's instructions. The following antibodies were used: LC3b (Cell Signaling, Beverly, Mass.), Atg5 (Abgent, San Diego, Calif.), Atg12 (Cell Signaling, Beverly, Mass.), calpain 1 (Cell Signaling, Beverly, Mass.), alpha-spectrin (Santa Cruz Biotechnology, Santa Cruz, Calif.), actin (Sigma, St. Louis, Mo.), and GAPDH (Abcam, Cambridge, Mass.).
After determining calpain 1 levels, it was looked to correlate this with calpain activity. […]

Non-standard residues stand in square brackets, D forms with d. Residues, ends and D or L forms follow the SMILES beside them. *: point of attachment. Nle = CCCC[C@H](N)C(=O)O; Cbz = O=C(OCc1ccccc1)*

For the compound `CO/C1=C\C(C)=C\[C@@H](C)[C@@H](O)[C@@H](C)C/C(C)=C/C=C/[C@H](OC)[C@@H]([C@@H](C)[C@@H](O)[C@H](C)[C@@]2(O)C[C@@H](O)[C@H](C)[C@@H](C(C)C)O2)OC1=O` [Bafilomycin-a], the “LC3-II level in retina” value with detached retina [1] is “remain elevated”. The “Atg5-12 levels in retina” value with detached retina [2] is listed as “did not appear to be any increase”; with detached retina [2] (listed as Baf-a) it was “no significant difference”. As for `CC(C)[C@H](NC(=O)OCc1ccccc1)C(=O)N[C@H](C=O)Cc1ccccc1` [MDG-28170] (Cbz-Val-Phe-aldehyde), on calpain 1, the cleaved alpha-spectrin levels result was “decreased”. In the case of `CCCC[C@@H](C=O)NC(=O)[C@H](CC(C)C)NC(=O)[C@H](CC(C)C)NC(C)=O` [MG-101] (Ac-Leu-Leu-[Nle]-aldehyde), the cleaved alpha-spectrin levels result at calpain 1 is recorded as “decreased”.
